According to patent US4707481A, “Pyridazinones, their preparation and use, and bronchospasmolytic medicaments containing pyridazinones” (BYK Gulden Lomberg Chemische Fabrik GmbH, priority 1983, dated 1987):
Like-named read-outs stand apart in the source and are kept apart here.

Columns and labels:
[1] = system: chain of tracheal rings of guinea pigs; assay: relaxing action on chain of tracheal rings in vitro (bronchospasmolytic action); parameters: species or system guinea pig; settings: for EC50: Cavia porcellus, Column A, negative logarithm of EC50 in mol/l, 50% of maximum relaxation by (-)isoprenaline, read-out: -lg[EC50] trachea (converted); for [EC40 pot.] left atrium / [EC50] trachea: Column C, measure of organ-selective activity; for [EC50] theophylline / [EC50] substance: Column D, trachea
Method: The relaxing action of the 6-aryl-3[2H]pyridazinones I has been tested in vitro on a chain of tracheal rings (Tr.) of guinea pigs. […] The quotient of [EC40pot. ]left atrium and [ED50 ]trachea serves as a measure of the organ-selective activity.
The bronchospasmolytic action of the compounds on the chain of tracheal rings of the guinea pig was tested in vitro:
Four parallel chains of tracheal rings, each consisting of 6 individual rings, of guinea pigs(.male. and .female., 430-600 g) in an organ bath [5 ml, Krebs-Henseleit solution with added phentolamine (10^-5 mol/l), 37° C., initial tension of the organs 2 g, gassing with carbogen] develop a stable, spontaneous tonic contraction after about 20 to 30 minutes. […] Over a period of 20 to 30 minutes, a complete dose/action curve of the test substance is thus obtained. The particular relaxation is expressed as a percentage fraction of the maximum relaxation which can be achieved by administration of (-)isoprenaline (10^-6 mol/1). The concentration of the test substance which causes 50% of the maximum relaxation which can be achieved, expressed by the negative logarithm of the EC50 mol/l: -lg[EC50 ]is a measure of the bronchodilator activity.

[2] = system: electrically stimulated left atrium of rats; assay: positive inotropic action on electrically stimulated left atrium in vitro; parameters: species or system rat; settings: for [EC40 pot.] theophylline / [EC40 pot.] substance: Column E, left atrium; for EC40: Rattus norvegicus, Column B, negative logarithm of EC40pot in mol/l, 40% increase in contraction force, read-out: -lg[EC40 pot.] left atrium (converted)
Method: The positive inotropic action was tested in vitro on the electrically stimulated left atrium of rats (l.a.).
The positive inotropic action of the compounds was tested in vitro on the electrically stimulated left atrium of rats.
Isometric contractions (HSE force sensor K-30; Watanabe recorder, Linear Corder Mark 5) of isolated, left atria from rats (.male., 250-300 g) in an organ bath (10 ml, Tyrode nutrient solution, 31° C., gassing with carbogen, initial tension of the organs 0.25 g) under electrical stimulation (HSE stimulator, 7 V, 3 ms, 2 Hz) were recorded. […] The particular increase in the contraction force is expressed in % of the starting value before administration of the substance. The concentration of the test substance which potentiates the contraction force of the atrium by 40% compared with the starting value [EC40pot. mol/l], expressed by the negative logarithm of the [EC40pot mol/l]: -lg[EC40pot ] serves as a measure of the cardiotonic activity.

[3] = toxicity studies, mouse p.o.; settings: in vivo, po; for LD50 at 168 h: Column F, mouse p.o., 7 days observation, read-out: Approximate LD50
Method: The toxicity studies are carried out on female NMRI mice (body weight 23-30 g). The animals (5 animals per dose) receive food and water ad libitum. Various doses of the substances are administered once as a suspension in methocel via a gavage. The period of observation lasts 7 days. The tolerated dose (TD), that is to say the highest dose at which as yet none of the animals die, is determined by observation. The average lethal dose (LD50), that is to say the dose at which 50% of the animals die, is determined from the dose/action curve by means of linear regression.

[4] = system: acetylcholine-induced bronchospasm; assay: protective effect against acetylcholine-induced bronchospasm in conscious guinea pigs; type: in vivo, guinea pig; settings: for Doubling of the latency period / Tripling of the latency period: 30 min; for Tripling of the latency period: figure in parentheses
Method: The figure in parentheses indicates the number out of 10 animals in which the latency period more than tripled.
The latency period is to be understood to be the time from the start of acetylcholine-atomization until clear signs of asthma appeared.
The time from the start of atomization to the onset of clear respiratory exertion (in certain circumstances, hypoxic convulsion in the lateral position) is measured, and is denoted the latency period.
The test substance is administered orally by gavage (standard dose 100 μmol/kg, volume 1 ml of 4% strength methocel suspension in 0.9% strength sodium chloride solution/kg). […] Prolongation of the latency period to at least twice its length is regarded as a protective effect.

[5] = system: guinea pig hearts isolated and perfused by the Langendorff method; assay: left-ventricular pressure and heart rate in isolated perfused Langendorff hearts; settings: for Emax: Cavia porcellus; for EC20 left-ventricular pressure: dose which leads to a 20% increase in left ventricular pressure
Text: After the animals have been sacrificed by a blow to the neck and exsanguination through the carotid arteries, the thoracic cavity is opened, and the aorta is exposed and looped up with a thread. A cannula, which is attached by tubing to the apparatus from which the nutrient solution slowly drops, is introduced in the direction of the heart and the heart is, quickly after removal from the thorax, connected to the perfusion apparatus. A balloon probe, connected to a Statham pressure sensor, is advanced through a cut through the left atrium into the left ventricle, and is provided with an initial pressure of 40 mm Hg. […] The nutrient solution flowing freely from the coronary sinus into the right atrium is measured with a flow […]) and, together with the change in the left-ventricular pressure and the heart rate determined from this, is recorded on a Watanabe recorder. The substances are administered in a volume of 0.1 ml of nutrient solution, in the dosage indicated in Tab.

[6] = system: right ventricle of guinea pigs; assay: heart function dP/dtmax, right ventricle of anesthetized guinea pigs; type: in vivo, guinea pig
Method: The effect of the substances on the contractility of the heart of guinea pigs is tested on animals (.male., 400 to 1000 g) under urethane anesthesia. The change in pressure in the right ventricle of the heart is measured with a tip catheter introduced through the right jugular vein and the maximum rate of pressure rise (dP/dtmax) is determined from this. The heart rate is derived from the pressure waves. […] The test substances were administered intravenously. 5-7 animals were used for each measurement, and the arithmetic mean was calculated from the results.

[7] = system: histamine-induced bronchospasm; assay: inhibition of histamine-induced bronchospasm in anesthetized guinea pigs; type: in vivo, guinea pig; settings: for inhibition of histamine-induced bronchospasm, TVi / inhibition of histamine-induced bronchospasm, Vmaxe / inhibition of histamine-induced bronchospasm, Vmaxi: 20 μmol/kg i.v.
Method: A method for simultaneously recording pharmacodynamic and toxic effects on internal sensitive receptors, on the respiration and the cardiovascular system of guinea pigs was used [U. Kilian, E. Muller, E. Ch. […] To characterize the bronchospasm induced by histamine (0.09-0.18 μmol /kg i.v.), the maximum flow rate of the respiratory air during inspiration (Vmaxi) and expiration (Vmaxe) and the breath volume (BVi) were measured. A histamine spasm before administration of the substance was compared with several histamine spasms after administration of the substance. The test substances were administered intravenously (i.v.) and/or intrajejunally (i.j.). 5 to 10 animals were used per measurement, and the arithmetic mean was calculated from the results.

[8] = after 500 nMol, read-out: Emax left-ventricular pressure
[9] = at Emax, 500 nMol, read-out: Percentage increase in heart rate at Emax

SMILES | EC50 [1] [µM] | [EC40 pot.] left atrium / [EC50] trachea [1] | [EC50] theophylline / [EC50] substance [1] | [EC40 pot.] theophylline / [EC40 pot.] substance [2] | EC40 [2] [µM] | LD50 at 168 h [3] [mg/kg] | Percentage increase in heart rate at EC20 [5] [%] | EC20 left-ventricular pressure [5] [nmol] | further results
CCCOc1cc(-c2ccc(=O)[nH]n2)ccc1OC [Serial No. 10, 6-(4-methoxy-3-n-propoxyphenyl)-3[2H]pyridazinone] | 0.468 | 1.3 | 288 | 661 | 0.631 | 770 | 9 | 40 | Doubling of the latency period ([4]; 100 μmol/kg p.o.): 6 N of 10 animals; Tripling of the latency period ([4]; 100 μmol/kg p.o.): 6 N of 10 animals; Doubling of the latency period ([4]; 300 μmol/kg p.o.): 10 N of 10 animals; Tripling of the latency period ([4]; 300 μmol/kg p.o.): 8 N of 10 animals; protective effect compared with theophylline ([4]; result in words): greater protective effect; Emax [5, 8]: 61%; Emax [5, 9]: 19%; Percentage change in dP/dtmax ([6]; 0.3 μmol/kg i.v., 0-10 min (Maximum)): 42%; Percentage change in dP/dtmax ([6]; 0.3 μmol/kg i.v., 10 min): 16%; Percentage change in dP/dtmax ([6]; 0.3 μmol/kg i.v., 30 min): 21%; Percentage change in dP/dtmax ([6]; 1 μmol/kg i.v., 0-10 min (Maximum)): 97%; Percentage change in dP/dtmax ([6]; 1 μmol/kg i.v., 10 min): 45%; Percentage change in dP/dtmax ([6]; 1 μmol/kg i.v., 30 min): 46%; Percentage change in dP/dtmax ([6]; 3 μmol/kg i.v., 0-10 min (Maximum)): 164%; Percentage change in dP/dtmax ([6]; 3 μmol/kg i.v., 10 min): 90%; Percentage change in dP/dtmax ([6]; 3 μmol/kg i.v., 30 min): 66%
COc1ccc(-c2ccc(=O)[nH]n2)cc1OC(C)C [Serial No. 11, 6-(4-methoxy-3-isopropoxyphenyl)-3[2H]pyridazinone] | 0.0977 | 10000 | 1370 |  | > 1000 | 600 |  |  | inhibition of histamine-induced bronchospasm, TVi ([7]; 2 min): 117%; inhibition of histamine-induced bronchospasm, Vmaxe ([7]; 2 min): 123%; inhibition of histamine-induced bronchospasm, Vmaxi ([7]; 2 min): 152%; inhibition of histamine-induced bronchospasm, TVi ([7]; 10 min): 84%; inhibition of histamine-induced bronchospasm, Vmaxe ([7]; 10 min): 109%; inhibition of histamine-induced bronchospasm, Vmaxi ([7]; 10 min): 113%; inhibition of histamine-induced bronchospasm, TVi ([7]; 20 min): 54%; inhibition of histamine-induced bronchospasm, Vmaxe ([7]; 20 min): 63%; inhibition of histamine-induced bronchospasm, Vmaxi ([7]; 20 min): 89%; inhibition of histamine-induced bronchospasm, TVi ([7]; 30 min): 38%; inhibition of histamine-induced bronchospasm, Vmaxe ([7]; 30 min): 43%; inhibition of histamine-induced bronchospasm, Vmaxi ([7]; 30 min): 47%; inhibition of histamine-induced bronchospasm, TVi ([7]; 60 min): 5%; inhibition of histamine-induced bronchospasm, Vmaxe ([7]; 60 min): 6%; inhibition of histamine-induced bronchospasm, Vmaxi ([7]; 60 min): 9%; inhibition of histamine-induced bronchospasm compared with theophylline ([7]; result in words): significantly more effective than theophylline
CCCOc1ccc(-c2ccc(=O)[nH]n2)cc1OC [compound 2] | 0.417 |  |  |  | 7.24 | 530 |  |  | Emax ([5]; after 300 nMol, read-out: Emax left-ventricular pressure): 59%; Emax ([5]; at Emax, 300 nMol, read-out: Percentage increase in heart rate at Emax): 13%
CCOc1cc(-c2ccc(=O)[nH]n2)ccc1OC [compound 8] | 0.339 | 3.9 | 398 | 316 | 1.32 | 550 |  |  | 
C=CCOc1cc(-c2ccc(=O)[nH]n2)ccc1OC [compound 9] | 0.537 | 2.3 | 251 | 331 | 1.26 | 610 | 7 | 50 | Emax [5, 8]: 53%; Emax [5, 9]: 21%
COc1ccc(-c2ccc(=O)[nH]n2)cc1OCCC(C)C [compound 12] | 0.501 | 2000 | 269 |  | > 1000 | 960 |  |  | 
COc1ccc(-c2ccc(=O)[nH]n2)cc1 [compound 19] | 8.91 | 19.1 | 15.1 | 4.7 | 170 |  | 6 | 160 | tolerated dose ([3]; mouse, 10080 min): > 400; Emax ([5]; after 1000 nMol, read-out: Emax left-ventricular pressure): 45%; Emax ([5]; at Emax, 1000 nMol, read-out: Percentage increase in heart rate at Emax): 11%
